Test system: Hela pLuc 705 cells
Test: Toxicity measurements (MTS cell proliferation assay)
Format: cell-based
Conditions: peptide:2'-OMe ON complexes, 200 nM ON, 24 hours, most effective concentrations (FIG. 6)
Description: Cell proliferation was studied with CellTiter 96® A Queous Non-Radioactive Cell Proliferation Assay (MTS) according to the manufacturer's instructions. Briefly, 10000 Hela pLuc 705 cells per well were seeded 1 day prior to experiment on a 96-well plate in complete DMEM. Cells were treated with peptide: 2′-OMe ON complexes at four different molar ratios (5:1, 7:1, 10:1 and 20:1) for 4 hours in serum-free medium, followed by the addition of 10% serum containing medium and incubated for additional 20 hours. MTS was added according to the manufacturer's general protocol (Promega Biotech AB, Sweden). The conversion of MTS into aqueous, soluble formazan is accomplished by dehydrogenase enzymes found in metabolically active cells. The absorbance of formazan product was measured at 490 nm, which is directly proportional to the number of living cells in culture. Absorbance was measured on Tecan Sunrise microplate absorbance reader (Tecan Group Ltd., Switzerland) and the percentage of viable cells was determined using GraphPad Prism software 5.0 (Graphpad Software, CA, USA).

Row | SMILES | toxicity (cell viability by MTS)
1 | CCCCCCCCCCCCCCCCCC(=O)N[C@@H](C)C(=O)NCC(=O)N[C@@H](Cc1ccc(OP(=O)(O)O)cc1)C(=O)N[C@@H](CC(C)C)C(=O)N[C@@H](CC(C)C)C(=O)NCC(=O)N[C@@H](CCCCN)C(=O)N[C@H](C(=O)N[C@@H](CC(N)=O)C(=O)N[C@@H](CC(C)C)C(=O)N[C@@H](CCCCN)C(=O)N[C@@H](C)C(=O)N[C@@H](CC(C)C)C(=O)N[C@@H](C)C(=O)N[C@@H](C)C(=O)N[C@@H](CC(C)C)C(=O)N[C@@H](C)C(=O)N[C@@H](CCCCN)C(=O)N[C@@H](CCCCN)C(=O)N[C@H](C(=O)N[C@@H](CC(C)C)C(N)=O)[C@@H](C)CC)[C@@H](C)O [NickFect 1, Stearyl-AGY(PO3)LLGKTNLKALAALAKKIL-NH2] | not toxic
2 | CCCCCCCCCCCCCCCCCC(=O)N[C@@H](C)C(=O)NCC(=O)N[C@@H](Cc1ccc(O)cc1)C(=O)N[C@@H](CC(C)C)C(=O)N[C@@H](CC(C)C)C(=O)NCC(=O)N[C@@H](CCCCN)C(=O)N[C@H](C(=O)N[C@@H](CC(N)=O)C(=O)N[C@@H](CC(C)C)C(=O)N[C@@H](CCCCN)C(=O)N[C@@H](C)C(=O)N[C@@H](CC(C)C)C(=O)N[C@@H](C)C(=O)N[C@@H](C)C(=O)N[C@@H](CC(C)C)C(=O)N[C@@H](C)C(=O)N[C@@H](CCCCN)C(=O)N[C@@H](CCCCN)C(=O)N[C@H](C(=O)N[C@@H](CC(C)C)C(N)=O)[C@@H](C)CC)[C@@H](C)OP(=O)(O)O [NickFect 2, Stearyl-AGYLLGKT(PO3)NLKALAALAKKIL-NH2] | not toxic

Reference: patent US20140038281A1, “SYSTEM FOR CARGO DELIVERY INTO THE CELLS” (CEPEP III AB, priority 2011, published 2014)
